Laboratory results taken from PubChem BioAssay AID292 (DTP/NCI, 2004).
Values joined by “and” are separate entries in the source; they are usually repeats but may differ in a detail not shown here. Identical values can stand only once. Inconclusive results and toxic doses are left out.

Test system: B6C3F1 mice, ip Sarcoma M5076, median survival T/C
Experiment: NCI In Vivo Anticancer Drug Screen. Data for tumor model Sarcoma M5076 (intraperitoneal) in B6C3F1 mice
Conditions: endpoint: median survival time, schedule: Q04DX004 (ip), higher = longer survival
Procedure: The antitumor activity of compounds was measured in mice bearing transplantable tumors. Survival or tumor size were measured and the results are expressed as the measurement made in the treated group (T) divided by the measurement made in the vehicle treated control group (C). The tumor model used in this assay is Sarcoma M5076 (intraperitoneal) in B6C3F1 mice

[1] = dose: 75.0 mg/kg/injection, vehicle: saline with Tween-80
[2] = dose: 75.0 mg/kg/injection, vehicle: saline
[3] = dose: 150.0 mg/kg/injection, vehicle: saline with Tween-80
[4] = dose: 300.0 mg/kg/injection, vehicle: saline with Tween-80
[5] = dose: 300.0 mg/kg/injection, vehicle: saline
[6] = dose: 600.0 mg/kg/injection, vehicle: saline with Tween-80
[7] = dose: 12.5 mg/kg/injection, vehicle: saline
[8] = dose: 25.0 mg/kg/injection, vehicle: saline
[9] = dose: 50.0 mg/kg/injection, vehicle: saline
[10] = dose: 6.25 mg/kg/injection, vehicle: saline with Tween-80
[11] = dose: 12.5 mg/kg/injection, vehicle: saline with Tween-80
[12] = dose: 25.0 mg/kg/injection, vehicle: saline with Tween-80
[13] = dose: 50.0 mg/kg/injection, vehicle: saline with Tween-80
[14] = dose: 100.0 mg/kg/injection, vehicle: saline with Tween-80
[15] = dose: 50.0 mg/kg/injection, vehicle: Klucel (hydroxypropylcellulose) (HPC)
[16] = dose: 100.0 mg/kg/injection, vehicle: Klucel (hydroxypropylcellulose) (HPC)
[17] = dose: 200.0 mg/kg/injection, vehicle: Klucel (hydroxypropylcellulose) (HPC)
[18] = dose: 400.0 mg/kg/injection, vehicle: Klucel (hydroxypropylcellulose) (HPC)
[19] = dose: 200.0 mg/kg/injection, vehicle: saline with Tween-80
[20] = dose: 400.0 mg/kg/injection, vehicle: saline with Tween-80
[21] = dose: 800.0 mg/kg/injection, vehicle: saline with Tween-80

SMILES: C=CC1(C)CC(=O)C2(O)C(C)(O1)C(OC(C)=O)C(O)C1C(C)(C)CCC(O)C12C (stereo not given)
- T/C (dose: 2.0 mg/kg/injection, vehicle: DMSO): 98 % of control
- T/C (dose: 4.0 mg/kg/injection, vehicle: DMSO): 104 % of control
- T/C (dose: 8.0 mg/kg/injection, vehicle: DMSO): 98 % of control
- T/C (dose: 16.0 mg/kg/injection, vehicle: DMSO): 96 % of control and 101 % of control
- T/C (dose: 32.0 mg/kg/injection, vehicle: DMSO): 95 % of control and 107 % of control

SMILES: O=C(NNC(=S)NC1OC(CO)C(O)C(O)C1O)c1cccc(C(=O)NNC(=S)NC2OC(CO)C(O)C(O)C2O)n1 (stereo not given)
- T/C (dose: 37.5 mg/kg/injection, vehicle: saline with Tween-80): 97 % of control
- T/C (dose: 37.5 mg/kg/injection, vehicle: saline): 101 % of control
- T/C [1]: 98 % of control
- T/C [2]: 96 % of control
- T/C [3]: 98 % of control
- T/C (dose: 150.0 mg/kg/injection, vehicle: saline): 101 % of control
- T/C [4]: 99 % of control
- T/C [5]: 96 % of control
- T/C [6]: 98 % of control
- T/C (dose: 600.0 mg/kg/injection, vehicle: saline): 103 % of control

SMILES: CC[C@](O)(C(=O)O)c1cc2n(c(=O)c1CO)Cc1cc3ccccc3nc1-2
- T/C (dose: 3.12 mg/kg/injection, vehicle: saline): 115 % of control
- T/C (dose: 6.25 mg/kg/injection, vehicle: saline): 115 % of control and 123 % of control
- T/C [7]: 119 % of control
- T/C [8]: 123 % of control
- T/C [9]: 114 % of control

SMILES: CCCCCCCC(=O)[O][Hg][CH2]C1COC([CH2][Hg][O]C(=O)CCCCCCC)CO1 (stereo not given)
- T/C [10]: 95 % of control
- T/C [11]: 86 % of control
- T/C [12]: 86 % of control and 87 % of control
- T/C [13]: 87 % of control and 90 % of control
- T/C [14]: 87 % of control

SMILES: COC(=O)N1C2CCCCC2=NN(c2ccccc2)N1C(=O)OC (stereo not given)
- T/C [15]: 96 % of control
- T/C [16]: 101 % of control
- T/C [17]: 99 % of control
- T/C [18]: 95 % of control
- T/C (dose: 800.0 mg/kg/injection, vehicle: Klucel (hydroxypropylcellulose) (HPC)): 100 % of control

SMILES: CCNC(=O)OCc1cnc(C)c(OC(=O)NCC)c1COC(=O)NCC
- T/C [13]: 89 % of control
- T/C [14]: 90 % of control
- T/C [19]: 87 % of control
- T/C [20]: 86 % of control
- T/C [21]: 91 % of control

SMILES: O=CC(CO)CC(C=O)n1cnc2c(=O)[nH]cnc21 (stereo not given)
- T/C (dose: 37.0 mg/kg/injection, vehicle: saline): 104 % of control
- T/C [2]: 105 % of control
- T/C [5]: 124 % of control

SMILES: COc1cc(N2C(=O)C(=O)C(C(C)=O)C2=O)c(OC)cc1Cl (stereo not given)
- T/C [15]: 102 % of control
- T/C [16]: 102 % of control
- T/C [17]: 101 % of control
- T/C [18]: 102 % of control

SMILES: CC(/C=C/C1OC(=O)C=CC1C)=C\C(C)C/C=C/C(C)=C/C(CO)C(=O)C(C)C(O)C(C)C/C(C)=C/C(=O)O (stereo not given)
- T/C (dose: 13.63 micrograms/kg/injection, vehicle: other): 100 % of control
- T/C (dose: 27.25 micrograms/kg/injection, vehicle: other): 107 % of control
- T/C (dose: 54.5 micrograms/kg/injection, vehicle: other): 109 % of control
- T/C (dose: 109.0 micrograms/kg/injection, vehicle: other): 113 % of control
- T/C (dose: 500.0 micrograms/kg/injection, vehicle: other): 171 % of control
- T/C (dose: 1000.0 micrograms/kg/injection, vehicle: other): 202 % of control
- T/C (dose: 2000.0 micrograms/kg/injection, vehicle: other): 192 % of control

SMILES: Nc1nc2c(ncn2C2OC(CO)C(O)C2O)c(=O)[nH]1 (stereo not given)
- T/C [1]: 107 % of control
- T/C [3]: 114 % of control
- T/C [4]: 114 % of control
- T/C [6]: 114 % of control
- T/C (dose: 1200.0 mg/kg/injection, vehicle: saline with Tween-80): 109 % of control

SMILES: Cc1ncc(CO)c(CO)c1OCC(O)CN1CCN(C(=O)c2ccccc2)CC1 (stereo not given)
- T/C [8]: 103 % of control
- T/C [9]: 103 % of control
- T/C (dose: 100.0 mg/kg/injection, vehicle: saline): 99 % of control

SMILES: COC(=O)Nc1ccc(Cc2ccc(NC(=O)OC)cc2)cc1
- T/C [13]: 95 % of control
- T/C [14]: 93 % of control and 94 % of control
- T/C [19]: 103 % of control and 119 % of control
- T/C [20]: 153 % of control
- T/C [6]: 160 % of control

SMILES: O=C1C(=O)C(CN2CCOCC2)=C(N2CCOCC2)C(N2CCOCC2)=C1CN1CCOCC1
- T/C [12]: 96 % of control
- T/C [13]: 101 % of control
- T/C [14]: 94 % of control
- T/C [19]: 88 % of control
- T/C [20]: 92 % of control

SMILES: COC(=O)c1ccc(OCc2nc3ccccc3[nH]2)cc1
- T/C [12]: 95 % of control
- T/C [13]: 100 % of control
- T/C [14]: 95 % of control
- T/C [19]: 89 % of control
- T/C [20]: 90 % of control

SMILES: Cn1c(=O)ccc2c1nc1ccccc1[n+]2[O-]
- T/C [11]: 98 % of control
- T/C [12]: 99 % of control
- T/C [13]: 103 % of control
- T/C [14]: 99 % of control
- T/C [19]: 94 % of control

SMILES: N=C1C=CC2C(=Nc3ccccc3[N+]2=O)N1CCO (stereo not given)
- T/C [12]: 91 % of control
- T/C [13]: 103 % of control
- T/C [14]: 104 % of control
- T/C [19]: 100 % of control

SMILES: c1ccc2c(c1)oc1cc3c(cc12)ncc1cccn13
- T/C [10]: 95 % of control
- T/C [11]: 90 % of control
- T/C [12]: 91 % of control

SMILES: CS(=O)(=O)CS(=O)(=O)OCCF
- T/C [7]: 152 % of control
- T/C (dose: 18.0 mg/kg/injection, vehicle: saline): 176 % of control
- T/C [8]: 189 % of control and 240 % of control
- T/C (dose: 30.0 mg/kg/injection, vehicle: saline): 244 % of control
- T/C [9]: 234 % of control and 262 % of control

SMILES: Clc1cccc(Cl)c1C(Nc1nncs1)Nc1nncs1
- T/C [13]: 112 % of control and 122 % of control
- T/C [14]: 123 % of control
- T/C [20]: 164 % of control
- T/C [21]: 157 % of control and 195 % of control

SMILES: COc1ccc(C(N)=O)cc1N=NN(C)C
- T/C (dose: 12.5 mg/kg/injection, vehicle: Klucel (hydroxypropylcellulose) (HPC)): 118 % of control and 121 % of control
- T/C [16]: 154 % of control and 179 % of control
